In this assay the test system is ApPKS KS-AT didomain. As to the kind of experiment: alpha-ketoglutarate dehydrogenase coupled NADH fluorescence. In kind it is biochemical, Anas platyrhynchos. The note with it: transacylation to ACP1 (AT site), corrected for ACP1 self-acylation; 50 mM sodium phosphate pH 7.6, 10% glycerol, 1 mM TCEP, 1 mM EDTA; read-out: Km (apparent).
`CC(C)(COP(=O)(O)OP(=O)(O)OC[C@H]1O[C@@H](n2cnc3c(N)ncnc32)[C@H](O)[C@@H]1OP(=O)(O)O)[C@@H](O)C(=O)NCCC(=O)NCCSC(=O)CC(=O)O` [malonyl-CoA]: the Km amounted to 7.4 ± 0.97 µM.
In the case of `CC(=O)SCCNC(=O)CCNC(=O)[C@H](O)C(C)(C)COP(=O)(O)OP(=O)(O)OC[C@H]1O[C@@H](n2cnc3c(N)ncnc32)[C@H](O)[C@@H]1OP(=O)(O)O` [acetyl-CoA] it was 8.97 ± 1.53 µM; in that of `CC(C(=O)O)C(=O)SCCNC(=O)CCNC(=O)[C@H](O)C(C)(C)COP(=O)(O)OP(=O)(O)OC[C@H]1O[C@@H](n2cnc3c(N)ncnc32)[C@H](O)[C@@H]1OP(=O)(O)O` (stereo partly shown) [methylmalonyl-CoA], 245 ± 37.7 µM.
`CCC(=O)SCCNC(=O)CCNC(=O)[C@H](O)C(C)(C)COP(=O)(O)OP(=O)(O)OC[C@H]1O[C@@H](n2cnc3c(N)ncnc32)[C@H](O)[C@@H]1OP(=O)(O)O` [propionyl-CoA]: the Km worked out at 12.2 ± 3.03 µM.

For orientation: Km means the substrate concentration at which the rate is half of its maximum.

Source of the values: PMC6334511, “Biochemical characterization of the minimal domains of an iterative eukaryotic polyketide synthase” (The Febs Journal, 2018).
